These compounds were tested against Egl nine homolog 1 (Homo sapiens, UniProt Q9GZT9) (assay: HIF-PH Assay). Details: pH 7.4.
Chain of Egl nine homolog 1 (Q9GZT9 whole entry): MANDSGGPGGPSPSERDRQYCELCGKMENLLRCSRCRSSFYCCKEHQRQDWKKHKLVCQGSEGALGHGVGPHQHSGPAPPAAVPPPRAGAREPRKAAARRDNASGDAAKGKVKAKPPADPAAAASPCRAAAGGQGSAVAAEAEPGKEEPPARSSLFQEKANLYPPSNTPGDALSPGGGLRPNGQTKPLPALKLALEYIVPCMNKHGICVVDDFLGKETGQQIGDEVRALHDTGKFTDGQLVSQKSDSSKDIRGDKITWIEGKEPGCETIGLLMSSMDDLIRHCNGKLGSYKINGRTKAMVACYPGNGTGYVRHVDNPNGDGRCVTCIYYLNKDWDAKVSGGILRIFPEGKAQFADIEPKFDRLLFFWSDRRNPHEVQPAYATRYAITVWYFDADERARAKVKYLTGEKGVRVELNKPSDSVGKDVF
Excerpt: Ketoglutaric acid α-[1-14C]-sodium salt, alpha-ketoglutaric acid sodium salt, and HPLC purified peptide may be obtained from commercial sources, e.g., Perkin-Elmer (Wellesley Mass.), Sigma-Aldrich, and SynPep Corp. (Dublin Calif.), respectively. […] For example, a HIF peptide for use in the HIF-PH assay is [methoxycoumarin]-[…]-amide. HIF-PH, e.g., HIF-PH2 (EGLN1), can be expressed in, e.g., insect Hi5 cells, and partially purified, e.g., through a SP ion exchange chromatography column. […] Reactions are initiated by addition of HIF-PH enzyme.
`Cc1ccncc1-c1nc(C(=O)NCCC(=O)O)c(O)c2cc(-c3ccccc3)c(=O)n(Cc3ccccc3)c12` [US9695170 179] gave an IC50 of 176 µM. Work on `COC(=O)NCCNC(=O)c1nc(C#N)c2ccc(=O)n(Cc3ccccc3)c2c1O` [US9695170 95] yielded an IC50 of 134 µM. For `COC(=O)NCCNC(=O)c1ncc2ccc(=O)n(Cc3ccccc3)c2c1O` [US9695170 96], the IC50 was 137 µM.

From BindingDB's records for patent US9695170 (FibroGen Inc, 2017)
